Results as given in patent publication US9492471B2, “Methods of treating a disease or disorder associated with Bruton'S Tyrosine Kinase” (Celgene Avilomics Research, Inc., priority 2013, dated 2016).
Like-named read-outs stand apart in the source and are kept apart here.

Assays:
Test in all cases: HotSpot kinase profiling
Type in all cases: biochemical
MINK/MINK1 = molecular target: T1, MINK/MINK1 (Homo sapiens, UniProt Q8N4C8)
T1 construct: purchased Reaction Biology Corp
Outline: (§1)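 P81 filtration radiometric readout; 2 h incubation at room temperature; 0.1% phosphoric acid wash; DMSO negative control; % inhibition, mean of replicate runs.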

SIK3 = molecular target: T2, SIK3 (Homo sapiens, UniProt Q9Y2K2)
T2 construct: purchased Reaction Biology Corp
Outline: as §1

Btk = molecular target: T3, Btk (Homo sapiens, UniProt Q06187)
T3 construct: purchased Reaction Biology Corp
Outline: as §1

IRAK4 = molecular target: T4, IRAK4 (Homo sapiens, UniProt Q9NWZ3)
T4 construct: purchased Reaction Biology Corp
T4 sequence (Q9NWZ3 1-460): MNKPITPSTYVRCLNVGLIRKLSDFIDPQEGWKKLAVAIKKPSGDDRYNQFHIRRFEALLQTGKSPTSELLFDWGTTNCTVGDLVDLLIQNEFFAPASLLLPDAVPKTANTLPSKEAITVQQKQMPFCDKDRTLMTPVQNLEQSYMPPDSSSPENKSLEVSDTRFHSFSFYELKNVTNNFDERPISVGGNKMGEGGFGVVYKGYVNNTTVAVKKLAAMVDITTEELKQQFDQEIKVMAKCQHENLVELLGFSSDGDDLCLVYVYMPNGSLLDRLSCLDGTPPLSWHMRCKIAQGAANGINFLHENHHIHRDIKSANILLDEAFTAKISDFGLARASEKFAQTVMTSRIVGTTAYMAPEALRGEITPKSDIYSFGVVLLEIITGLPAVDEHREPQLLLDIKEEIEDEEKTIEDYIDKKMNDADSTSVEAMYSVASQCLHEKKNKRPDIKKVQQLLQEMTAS
Outline: as §1

PKCiota = molecular target: T5, PKCiota (Homo sapiens, UniProt P41743)
T5 construct: purchased Reaction Biology Corp
T5 sequence (P41743 1-596): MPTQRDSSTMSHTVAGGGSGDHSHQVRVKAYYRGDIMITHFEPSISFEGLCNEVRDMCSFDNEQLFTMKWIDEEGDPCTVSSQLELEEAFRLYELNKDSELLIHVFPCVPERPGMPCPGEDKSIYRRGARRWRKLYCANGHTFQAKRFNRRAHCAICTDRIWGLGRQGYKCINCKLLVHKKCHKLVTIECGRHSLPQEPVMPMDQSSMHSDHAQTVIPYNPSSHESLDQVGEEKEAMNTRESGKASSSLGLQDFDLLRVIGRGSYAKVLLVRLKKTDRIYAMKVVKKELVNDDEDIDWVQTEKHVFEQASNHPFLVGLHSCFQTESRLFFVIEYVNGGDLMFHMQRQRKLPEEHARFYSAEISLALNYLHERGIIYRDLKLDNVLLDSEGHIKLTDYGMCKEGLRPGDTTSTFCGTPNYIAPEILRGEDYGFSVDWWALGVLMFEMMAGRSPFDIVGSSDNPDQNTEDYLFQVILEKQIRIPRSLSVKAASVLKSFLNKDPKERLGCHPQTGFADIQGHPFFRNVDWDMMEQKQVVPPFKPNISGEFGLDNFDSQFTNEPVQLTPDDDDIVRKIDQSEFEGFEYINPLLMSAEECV
Outline: as §1

MLK1/MAP3K9 = molecular target: T6, MLK1/MAP3K9 (Homo sapiens, UniProt P80192)
T6 construct: purchased Reaction Biology Corp
Outline: as §1

MST4 = molecular target: T7, MST4 (Homo sapiens, UniProt Q9P289)
T7 construct: purchased Reaction Biology Corp
Outline: as §1

MKK4 = molecular target: T8, MKK4 (Homo sapiens, UniProt P45985)
T8 construct: purchased Reaction Biology Corp
T8 sequence (P45985 1-399): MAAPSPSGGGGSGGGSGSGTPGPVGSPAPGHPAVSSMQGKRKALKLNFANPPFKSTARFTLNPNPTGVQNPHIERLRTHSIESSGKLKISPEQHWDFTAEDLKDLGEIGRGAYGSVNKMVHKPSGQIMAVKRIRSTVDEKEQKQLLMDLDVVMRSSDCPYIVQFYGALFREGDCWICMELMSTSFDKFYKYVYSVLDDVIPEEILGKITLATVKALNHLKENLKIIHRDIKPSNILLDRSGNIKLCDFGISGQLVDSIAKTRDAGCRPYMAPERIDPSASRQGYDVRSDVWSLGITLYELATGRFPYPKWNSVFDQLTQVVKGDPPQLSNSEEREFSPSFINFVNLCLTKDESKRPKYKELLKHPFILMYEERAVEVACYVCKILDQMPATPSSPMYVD
Outline: as §1

[1] = read-out: % Enzyme Activity (relative to DMSO controls) Run 1
[2] = read-out: % Enzyme Activity (relative to DMSO controls) Run 2

T3 sequence (Q06187 whole entry): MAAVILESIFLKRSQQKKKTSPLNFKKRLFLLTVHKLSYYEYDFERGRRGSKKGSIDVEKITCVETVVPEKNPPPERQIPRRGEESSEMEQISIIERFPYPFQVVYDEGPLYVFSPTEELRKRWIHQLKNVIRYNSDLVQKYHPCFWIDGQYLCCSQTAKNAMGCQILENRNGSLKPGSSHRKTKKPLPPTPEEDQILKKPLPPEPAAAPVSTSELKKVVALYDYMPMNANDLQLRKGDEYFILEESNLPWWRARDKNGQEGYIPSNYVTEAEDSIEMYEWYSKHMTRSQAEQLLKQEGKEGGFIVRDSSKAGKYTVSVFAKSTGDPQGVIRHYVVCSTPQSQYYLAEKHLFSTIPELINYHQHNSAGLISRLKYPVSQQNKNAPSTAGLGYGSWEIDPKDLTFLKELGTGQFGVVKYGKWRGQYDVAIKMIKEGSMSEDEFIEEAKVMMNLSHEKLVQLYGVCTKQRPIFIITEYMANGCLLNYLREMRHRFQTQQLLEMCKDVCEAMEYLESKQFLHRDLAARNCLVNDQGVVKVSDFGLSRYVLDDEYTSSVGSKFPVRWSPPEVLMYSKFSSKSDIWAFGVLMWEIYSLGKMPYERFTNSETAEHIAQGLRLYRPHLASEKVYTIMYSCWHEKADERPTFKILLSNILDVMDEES
T2 sequence (Q9Y2K2 whole entry): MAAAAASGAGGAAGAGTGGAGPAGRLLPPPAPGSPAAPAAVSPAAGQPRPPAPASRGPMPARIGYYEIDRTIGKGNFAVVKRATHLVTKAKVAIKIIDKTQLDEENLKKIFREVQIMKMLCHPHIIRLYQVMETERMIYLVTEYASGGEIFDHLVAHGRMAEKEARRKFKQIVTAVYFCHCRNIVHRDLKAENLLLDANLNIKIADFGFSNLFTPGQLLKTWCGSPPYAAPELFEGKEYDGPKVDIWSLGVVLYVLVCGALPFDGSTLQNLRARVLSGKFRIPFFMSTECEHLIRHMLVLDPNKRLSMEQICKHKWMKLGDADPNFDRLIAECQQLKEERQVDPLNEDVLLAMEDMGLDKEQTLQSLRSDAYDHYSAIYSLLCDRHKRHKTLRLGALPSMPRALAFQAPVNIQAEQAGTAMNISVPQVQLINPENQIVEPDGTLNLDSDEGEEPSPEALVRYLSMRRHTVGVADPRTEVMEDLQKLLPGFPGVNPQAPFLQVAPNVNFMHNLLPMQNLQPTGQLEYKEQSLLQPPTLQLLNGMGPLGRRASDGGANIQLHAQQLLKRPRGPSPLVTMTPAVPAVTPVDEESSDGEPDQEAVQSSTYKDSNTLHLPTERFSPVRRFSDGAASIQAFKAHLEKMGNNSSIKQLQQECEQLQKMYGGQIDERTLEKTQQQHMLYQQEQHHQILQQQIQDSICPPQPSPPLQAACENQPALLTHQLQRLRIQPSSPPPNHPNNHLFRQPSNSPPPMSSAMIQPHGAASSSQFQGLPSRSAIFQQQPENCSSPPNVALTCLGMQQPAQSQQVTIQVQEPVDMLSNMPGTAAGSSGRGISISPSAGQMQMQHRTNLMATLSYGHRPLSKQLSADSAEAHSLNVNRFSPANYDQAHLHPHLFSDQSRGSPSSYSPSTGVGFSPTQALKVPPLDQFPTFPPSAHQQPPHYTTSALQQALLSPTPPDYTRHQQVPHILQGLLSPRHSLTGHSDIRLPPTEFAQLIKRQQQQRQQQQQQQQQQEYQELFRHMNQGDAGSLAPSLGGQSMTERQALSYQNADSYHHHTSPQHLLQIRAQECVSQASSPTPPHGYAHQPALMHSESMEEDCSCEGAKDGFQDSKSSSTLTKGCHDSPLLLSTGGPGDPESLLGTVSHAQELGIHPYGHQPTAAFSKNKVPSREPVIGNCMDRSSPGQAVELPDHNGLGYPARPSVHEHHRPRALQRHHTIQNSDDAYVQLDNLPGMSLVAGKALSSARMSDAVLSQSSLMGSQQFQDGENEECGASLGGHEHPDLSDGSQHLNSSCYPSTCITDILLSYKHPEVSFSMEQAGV
T7 sequence (Q9P289 whole entry): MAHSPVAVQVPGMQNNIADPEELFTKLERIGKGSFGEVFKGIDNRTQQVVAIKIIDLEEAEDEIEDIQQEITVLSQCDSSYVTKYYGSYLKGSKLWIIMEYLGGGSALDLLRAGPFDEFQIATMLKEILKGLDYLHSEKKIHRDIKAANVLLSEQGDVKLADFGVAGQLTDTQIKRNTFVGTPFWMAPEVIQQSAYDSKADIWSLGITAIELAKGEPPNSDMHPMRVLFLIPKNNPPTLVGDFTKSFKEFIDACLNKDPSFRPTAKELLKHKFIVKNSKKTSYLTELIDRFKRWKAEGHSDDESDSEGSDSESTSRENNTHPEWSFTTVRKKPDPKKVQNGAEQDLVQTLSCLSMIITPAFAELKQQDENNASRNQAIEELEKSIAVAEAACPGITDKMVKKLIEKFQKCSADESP
T1 sequence (Q8N4C8 whole entry): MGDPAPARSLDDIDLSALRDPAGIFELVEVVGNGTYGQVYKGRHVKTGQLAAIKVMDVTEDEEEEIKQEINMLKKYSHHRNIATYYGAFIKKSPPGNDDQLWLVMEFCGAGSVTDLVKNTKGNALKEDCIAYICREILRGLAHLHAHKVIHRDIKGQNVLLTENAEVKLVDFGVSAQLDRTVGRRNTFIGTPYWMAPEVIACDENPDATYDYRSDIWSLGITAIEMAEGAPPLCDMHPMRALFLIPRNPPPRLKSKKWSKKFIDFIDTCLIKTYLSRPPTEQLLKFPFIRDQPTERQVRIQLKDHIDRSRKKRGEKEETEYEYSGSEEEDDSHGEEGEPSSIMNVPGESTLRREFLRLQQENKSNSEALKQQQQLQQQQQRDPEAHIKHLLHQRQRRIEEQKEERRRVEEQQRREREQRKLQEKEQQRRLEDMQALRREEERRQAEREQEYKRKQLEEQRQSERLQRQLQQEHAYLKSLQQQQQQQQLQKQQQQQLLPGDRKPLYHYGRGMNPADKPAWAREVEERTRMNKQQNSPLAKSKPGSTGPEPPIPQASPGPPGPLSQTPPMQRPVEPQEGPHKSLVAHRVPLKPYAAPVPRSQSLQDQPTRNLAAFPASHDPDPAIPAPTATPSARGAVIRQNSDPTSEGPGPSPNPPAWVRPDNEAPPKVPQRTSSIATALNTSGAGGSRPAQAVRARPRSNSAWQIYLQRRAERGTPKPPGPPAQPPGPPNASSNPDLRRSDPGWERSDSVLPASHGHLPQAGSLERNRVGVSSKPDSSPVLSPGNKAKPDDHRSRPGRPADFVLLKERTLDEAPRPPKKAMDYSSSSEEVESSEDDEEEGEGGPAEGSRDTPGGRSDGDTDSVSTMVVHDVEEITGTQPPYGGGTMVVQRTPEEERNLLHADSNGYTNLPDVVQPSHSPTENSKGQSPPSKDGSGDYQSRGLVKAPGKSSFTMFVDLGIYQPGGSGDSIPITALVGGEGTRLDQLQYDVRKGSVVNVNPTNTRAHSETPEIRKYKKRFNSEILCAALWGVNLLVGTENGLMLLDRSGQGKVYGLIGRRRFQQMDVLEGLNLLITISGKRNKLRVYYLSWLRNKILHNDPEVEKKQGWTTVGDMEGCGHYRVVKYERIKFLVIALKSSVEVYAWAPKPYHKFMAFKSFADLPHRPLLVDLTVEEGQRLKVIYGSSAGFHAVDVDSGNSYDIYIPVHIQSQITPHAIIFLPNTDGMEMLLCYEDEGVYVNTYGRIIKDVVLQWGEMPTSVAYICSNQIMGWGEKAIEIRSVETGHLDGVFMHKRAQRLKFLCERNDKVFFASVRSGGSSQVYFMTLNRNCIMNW
T6 sequence (P80192 whole entry): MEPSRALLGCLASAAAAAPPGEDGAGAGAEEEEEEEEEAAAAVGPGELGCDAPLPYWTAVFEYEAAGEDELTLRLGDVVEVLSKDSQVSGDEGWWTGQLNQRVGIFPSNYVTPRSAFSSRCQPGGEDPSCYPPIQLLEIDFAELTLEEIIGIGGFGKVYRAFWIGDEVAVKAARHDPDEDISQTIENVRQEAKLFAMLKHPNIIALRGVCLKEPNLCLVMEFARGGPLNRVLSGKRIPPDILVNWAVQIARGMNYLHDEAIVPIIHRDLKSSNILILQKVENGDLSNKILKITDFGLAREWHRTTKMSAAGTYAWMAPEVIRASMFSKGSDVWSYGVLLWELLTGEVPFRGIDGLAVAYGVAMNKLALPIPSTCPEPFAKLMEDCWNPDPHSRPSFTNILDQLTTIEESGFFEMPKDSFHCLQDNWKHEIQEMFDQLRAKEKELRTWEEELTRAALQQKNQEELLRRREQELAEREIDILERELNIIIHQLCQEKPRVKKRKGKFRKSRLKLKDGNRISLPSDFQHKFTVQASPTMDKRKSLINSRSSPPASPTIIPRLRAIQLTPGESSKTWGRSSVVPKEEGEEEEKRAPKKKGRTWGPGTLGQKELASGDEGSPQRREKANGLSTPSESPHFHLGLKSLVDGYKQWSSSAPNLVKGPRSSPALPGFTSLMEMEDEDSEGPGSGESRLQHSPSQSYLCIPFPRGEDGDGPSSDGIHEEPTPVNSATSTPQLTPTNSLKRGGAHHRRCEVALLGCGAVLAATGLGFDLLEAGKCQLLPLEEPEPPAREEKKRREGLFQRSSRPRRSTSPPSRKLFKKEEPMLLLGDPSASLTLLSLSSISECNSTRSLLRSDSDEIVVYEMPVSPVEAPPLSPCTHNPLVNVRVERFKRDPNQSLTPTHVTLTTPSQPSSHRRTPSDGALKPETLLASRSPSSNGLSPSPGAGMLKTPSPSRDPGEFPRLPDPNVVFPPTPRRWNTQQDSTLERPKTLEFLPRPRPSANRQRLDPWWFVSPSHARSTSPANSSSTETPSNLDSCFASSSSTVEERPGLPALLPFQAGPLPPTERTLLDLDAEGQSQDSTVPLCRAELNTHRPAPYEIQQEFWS

SMILES: C=CC(=O)Nc1cccc(Nc2nc(Nc3ccc(OCCOC)c(F)c3)ncc2F)c1 [Compound 2]
- inhibition at 3 µM (MINK/MINK1): 0.9%
- remaining activity at 3 µM (MINK/MINK1; [1]): 101%
- remaining activity at 3 µM (MINK/MINK1; [2]): 97.5%
- inhibition at 3 µM (SIK3): 7.93%
- remaining activity at 3 µM (SIK3; [1]): 91.3%
- remaining activity at 3 µM (SIK3; [2]): 92.8%
- inhibition at 3 µM (Btk): 95.5%
- remaining activity at 3 µM (Btk; [1]): 3.69%
- remaining activity at 3 µM (Btk; [2]): 5.4%
- inhibition at 3 µM (IRAK4): 12.4%
- remaining activity at 3 µM (IRAK4; [1]): 88.6%
- remaining activity at 3 µM (IRAK4; [2]): 86.5%
- inhibition at 3 µM (PKCiota): -5.47%
- remaining activity at 3 µM (PKCiota; [1]): 105%
- remaining activity at 3 µM (PKCiota; [2]): 106%
- inhibition at 3 µM (MLK1/MAP3K9): 85.7%
- remaining activity at 3 µM (MLK1/MAP3K9; [1]): 14.5%
- remaining activity at 3 µM (MLK1/MAP3K9; [2]): 14.1%
- inhibition at 3 µM (MST4): -1.09%
- remaining activity at 3 µM (MST4; [1]): 97.8%
- remaining activity at 3 µM (MST4; [2]): 104%
- inhibition at 3 µM (MKK4): -16.6%
- remaining activity at 3 µM (MKK4; [1]): 117%
- remaining activity at 3 µM (MKK4; [2]): 116%
